The structures appear in SMILES notation. Marks after values point to notes of the source that are not given here.

These results are taken from patent publication US20160303108A1, “NOVEL DOSAGE FORM AND FORMULATION OF ABEDITEROL” (Almirall, S.A., priority 2012, published 2016).

The test system of series [1] is patients with stable moderate to severe chronic obstructive pulmonary disease (COPD). The series is described as follows: Clinical phase IIa single-dose cross-over study in stable moderate to severe COPD (trough FEV1, safety, tolerability). The series is classed as in vivo, human. To be noted: for Change from baseline in morning pre-dose (trough) FEV1 at Day 2: 23-24 h after administration. The text has this: Clinical phase IIa study: A randomised, single dose, double-blind, double-dummy, 6 way complete cross-over, placebo and active comparator controlled, assesses the efficacy, safety and tolerability of single doses of abediterol administered once daily by inhalation compared to placebo and active comparator in patients with stable moderate to severe chronic obstructive pulmonary disease (COPD).
(§1) Methods: 63 patients (men and women aged ≧40 years) with a clinical diagnosis of stable moderate to severe COPD, as defined by the 2011 GOLD guideline, with no signs of an exacerbation within 6 weeks prior to the screening visit and with a FEV1 30-80% of the predicted normal values (according to Quanjer et al. 1993) were randomised to treatment sequences comprising a single-dose administration of abediterol (at a metered nominal dose of 0.625, 2.5, 5 and 10 micrograms in the Genuair® device), one administration of indacaterol (at a metered nominal dose of 150 micrograms once daily in the Onbrez Breezhaler® device) and placebo (administered in both Genuair® and Onbrez Breezhaler®). The washout period between each administration was at least 7 days. Lung function measurements included (by spirometry) trough FEV1. Trough FEV1 is defined as a main FEV1 value between 23 and 24 h after Investigational Medicinal Product (IMP) administration.

A short description of series [2]: Measurement of the fine particle dose (FPD<5 μm, Anderson Cascade Impactor, Genuair inhaler). The series is classed as physicochemical. As for the experimental part: The test on the aerodynamic assessment of the fine particles (FPD<5 μm) of the inhalation powder composition is carried out in combination with the Genuair® inhaler. The Fine Particle Fraction of abediterol free base was calculated on basis of the principles of the aerodynamic assessment of fine particles according to the Current European pharmacopoeia (Ph. Eur. Chapter 2.9.18) and USP <601> by the aid of aerodynamic impactor analyses using a modified Anderson Cascade Impactor (ACI), 60 L/min-configuration including pre-separator, stage −1, −0, and stage 1-7 (filter stage). The content of the active ingredient on each stage of the impactor is determined my means of HPLC.
The fine particle dose (FPD<5 μm) is calculated based on Ph. Eur. Chapter 2.9.18 and USP <601> by point to point interpolation per dosage. Linear point to point interpolation is done between the stages with a corresponding effective cut-off diameter which enclose the 5 μm mark.
To obtain the Fine Particle Dose, the cumulative percent value (y-value) at which the line of data plot crosses 5 μm mark is determined. […]
FPD [μg]=yFPD·F/100% • FPD=Fine particle dose<5 μm of the active ingredient per dosage [μg]. • yFPD=y-value of cumulative percentage of mass at a particle size of 5 μm evaluated by linear point to point interpolation [%]. • F=sum of mass on stage −1-stage 7 (filter) per dosage [μg].

The test system of series [3] is persistent asthmatic patients. The experiment in a line: Clinical phase IIa single-dose cross-over study in persistent asthma (FEV1, safety, tolerability). The series is classed as in vivo, human. The text has this: Clinical phase IIa study: A randomised, single dose, double-blind, double-dummy, 6 way complete cross-over, placebo and active comparator controlled, assesses the efficacy, safety and tolerability of single doses of abediterol administered once daily by inhalation compared to placebo and active comparator in persistent asthmatic patients.
(§2) Methods: 62 patients (Adult men and women aged 18-70 years) with a clinical diagnosis of persistent asthma, as defined by the 2011 GINA guideline, for at least 6 months prior to screening and with a FEV1 61-85% of the predicted normal values (according to Quanjer et al. 1993) were randomised to treatment sequences comprising a single-dose administration of abediterol (at metered nominal doses of 0.313, 0.625, 1.25 and 2.5 micrograms in the Genuair® device), one administration of salbutamol (at a metered nominal dose of 400 micrograms (100 micrograms×4 puffs) in the Ventolin Evohaler® device) and placebo (administered in both Genuair® and Ventolin Evohaler®) administered all of them by means of […]. The washout period between each administration was at least 7 days.

The subject of series [4] is asthmatic and COPD patients. The series is described as follows: Overall conclusion of the phase IIa studies in asthmatic and COPD patients. The series is classed as in vivo, human.
Source text: as §2, §1

Series [5] can be described thus: Measurement of the delivered dose (collection tube, Genuair inhaler, HPLC). In kind it is physicochemical. The procedure:
The measurement of the delivered dose is carried out based on Ph. Eur. Chapter 2.9.18 and USP <601> using “collection tube” apparatus (CT). For this, the Genuair® inhaler is fitted to the Collection Tube via an adapter, the dosage key of the Genuair® inhaler is pressed and released and then 2 L or 4 L of air are sucked through the inhaler and the Collection Tube (the inspiratory flow rate through the inhaler was approx. 65 L/min at a pressure drop of 4 KPa). Subsequently, the inhalation powder delivered to the Collection Tube is extracted with solvent and analyzed using High Performance Liquid chromatography equipment (HPLC).

Where [6] appears, read: nominal dose of 1.25 micrograms abediterol free base.
Setting [7] is: nominal dose of 2.5 micrograms abediterol free base.

For `CCc1cc2c(cc1CC)CC(NC[C@H](O)c1ccc(O)c3[nH]c(=O)ccc13)C2` [Indacaterol, reference compound], the “Change from baseline in morning pre-dose (trough) FEV1 at Day 2” value in series [1] (150 μg, Onbrez Breezhaler, n = 68) is listed as 76* ml.

On to `O=c1ccc2c([C@@H](O)CNCCCCCCOCC(F)(F)c3ccccc3)ccc(O)c2[nH]1` [Abediterol, 5-(2-{[6-(2,2-difluoro-2-phenylethoxy)hexyl]amino}-1(R)-hydroxyethyl)-8-hydroxyquinolin-2(1H)-one], for which the “Fine particle dose (FPD<5 μm) per dose” value in series [2] (setting [6]) was “about 0.45 micrograms”; in series [2] (setting [7]), “about 1.0 micrograms”. The “Tolerability (ECG, laboratory parameters, adverse events)” value was “well tolerated” in series [3] (asthma patients, doses 0.313-2.5 micrograms, no dose-dependent effect) and “well tolerated” in series [1] (COPD patients, doses 0.625-10 micrograms, no dose-dependent effect). Moreover, the “Bronchodilatory effect compared with salbutamol” value in series [3] (doses of 1.25 and 2.5 micrograms vs salbutamol 400 micrograms) was “increased bronchodilatory effect”. The “Time to peak FEV1 at day 1” value in series [3] (post-dose, all abediterol doses (0.313-2.5 micrograms)) was ≤ 4 h. Moreover, the “Change from baseline in peak FEV1 on Day 1” value in series [3] (single inhaled dose 0.313 μg, Genuair, n = 60) was 477* ml; in series [3] (single inhaled dose 0.625 μg, Genuair, n = 60), 524* ml; in series [3] (single inhaled dose 1.25 μg, Genuair, n = 60), 573** ml; in series [3] (single inhaled dose 2.5 μg, Genuair, n = 61), 608*** ml. Further, the “Duration of bronchodilation effect” value in series [4] (all dose levels tested) is recorded as “more than 24 h”. In addition, the “Changes on safety outcomes (HR, QTcF, glucose and potassium)” value in series [4] (all doses tested) is listed as “no overall clinically relevant changes”. Further, the “Minimum dose having similar therapeutic effect to salbutamol and indacaterol” value in series [4] (metered nominal dose, Genuair) is 0.625 micrograms. For the same compound, the “Trough FEV1 compared with indacaterol 150 micrograms” value in series [1] (doses of 2.5, 5 and 10 micrograms, statistically significant) was “greater trough FEV1”. The “Minimum therapeutic effective dose producing higher bronchodilatory effects when compared with indacaterol 150 micrograms” value in series [1] (metered nominal dose, Genuair) is given as 2.5 micrograms. The “Change from baseline in morning pre-dose (trough) FEV1 at Day 2” value in series [1] (single inhaled dose 0.625 μg, Genuair, n = 67) is on record as 66* ml; in series [1] (single inhaled dose 2.5 μg, Genuair, n = 66), 168** ml; in series [1] (single inhaled dose 5 μg, Genuair) it was 198** ml; in series [1] (single inhaled dose 10 μg, Genuair) it was 223*** ml. Further, the “Delivered dose per dose” value in series [5] (setting [6]) is reported as “about 1.1 micrograms”; in series [5] (setting [7]), “about 2.3 micrograms”.

Regarding `CC(C)(C)NCC(O)c1ccc(O)c(CO)c1` (centres unmarked) [Salbutamol, reference compound], the “Change from baseline in peak FEV1 on Day 1” value in series [3] (400 μg (100 micrograms×4 puffs), Ventolin Evohaler, n = 58) is 555** ml.
